The experiment relates to human nasal passage. Briefly: testing of the nasal spray / nasal wash composition applied to the nasal passages. The class given is in vivo. The following applies: CBD at 0.3% by weight in the composition. On the procedure:
A homogenized mixture of water, cannabinoid, an olfactory stimulant, and inorganic salt when applied to a nasal passage as a mist delivering 0.08 mL to 0.18 mL in each nostril is effective as a nasal wash. A solubilizing agent particularly suited for cannabinoids may also be added, such as those disclosed in U.S. patent application Ser. No. 17/527,465, filed Nov. 16, 2021.
Practicing nasal hygiene by the use of the method of applying to a person's nostril a mist of nasal wash composition comprising the product of compounding under homogenizing conditions water, an amount of a source of chlorine dioxide, 0.1 to 1% by weight cannabinoid; 0.1 to 3% by weight of olfactory stimulant; and 0 to 5% by weight of at least one fixative compound; and blowing air out of the nostril. and composition of the invention, nasal irritation is reduced. […]
It is a feature of the invention that the practice of nasal hygiene according to the invention requires only moderate and convenient quantities of the composition. It is sufficient for the user to place a convenient quantity of the composition, which can range from about 0.3 to 3 milliliters, into each nostril and retain it for a holding period which can range from a fraction of a minute to about ten minutes or as long as comfortable, and then remove it as by blowing the nose. […]

The results in this text go back to patent US20230157945A1, “Nasal Hygiene Method and Formulation” (ACTUAL NATURAL HEALTH & WELLNESS PRODUCTS, INC., priority 2018, published 2023).

With `C=C(C)[C@@H]1CCC(C)=C[C@H]1c1c(O)cc(CCCCC)cc1O` [CBD, Cannabidiol], the pain relief result is on record as “effective pain relief”.
